Results: patent US20040086942A1, “Ige receptor antagonists” (priority 2003, published 2004)
Like-named read-outs stand apart in the source and are kept apart here. Each block holds one compound with its values, some of them ahead of it. Where a SMILES comes first, the peptide text is derived from it. Bridges are numbered along the chain shown (N, C = ends). [ ]: non-standard residue; d: D form. Pip = O=C(O)[C@@H]1CCCCN1; Sar = CNCC(=O)O

What was measured:
[1] = 2D NMR structural score versus reference peptide; format: physicochemical; parameters: key to Struct. Score: +++ indicates the peptide is structured similarly to IGE063 (SEQ ID NO:49); + indicates the peptide is structured similarly to IGE063 (SEQ ID NO:49), but is less stable; −/+ indicates the peptide has some elements of stable structure, but the conformation differs from the reference structure (e.g., a different turn type is evident); − indicates the peptide is predominantly unstructured in aqueous solution; details: reference IGE063
Method: Peptides were evaluated by 2D NMR spectroscopy to assess the effect of substitutions on the three-dimensional structure of the peptide analog. All peptides with a structural score indicated in Table 5 were analyzed by 2D NMR spectroscopy; backbone ^1H resonances were assigned and ^3JHN-Hα coupling constants were measured and compared to the reference peptide (IGE063, SEQ ID NO:49; see Example 5). Peptides are defined to be of similar structure to the reference peptide provided chemical shifts, coupling constants, and NOEs are consistent with that structure.
A structural score was assigned to peptides analyzed by 2D NMR spectroscopy. For each of these peptides, backbone ^1H resonances have been assigned, and the ^3JHN-Ha coupling constants have been measured and compared to the reference peptide (i.e., IGE134 (SEQ ID NOS:155, 171)). Peptides are defined to be of similar structure to the reference peptide provided. chemical shifts, coupling constants, and NOEs are consistent with that structure.

[2] = target: T1, alpha subunit of the human FcεRI receptor (Homo sapiens, UniProt P12319); experiment: cell-based 125I-IgE binding inhibition assay on CHO FcεRI+ cells; details: for fold difference in activity relative to comparator peptide: comparator (parent/control peptide) as named in the sentence
T1 construct: expressed in transfected cells; host or cells: Chinese hamster ovary (CHO FcεRI+) cells
T1 sequence (P12319 26-257): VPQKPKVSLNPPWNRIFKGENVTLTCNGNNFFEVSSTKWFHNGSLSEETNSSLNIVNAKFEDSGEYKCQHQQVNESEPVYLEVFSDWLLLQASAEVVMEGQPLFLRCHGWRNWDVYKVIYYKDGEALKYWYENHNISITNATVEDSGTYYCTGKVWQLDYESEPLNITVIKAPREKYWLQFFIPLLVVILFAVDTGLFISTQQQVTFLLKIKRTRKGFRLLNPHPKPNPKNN
Method: . The following day the cells were rinsed three times with PBS and then once with F12/DMEM. Peptide stocks were reconstituted in 100 mM Hepes buffered water, pH 7.2, at a concentration of 5 mg/mL. Working concentrations of the peptide were diluted in assay buffer (see below). 75 ul, of a desired concentration of peptide was added to the top row of a separate 96 well microtiter plate and serially diluted 1:3 in 50 uL of the assay buffer (F12/DMEM, 1% BSA, 0.05% NaN3 and […] Hepes pH 7.2). Starting concentrations ranged from 50-500 uM. Next, 50 uL of the diluted peptide was transferred to the 96 microtiter well plate containing a monolayer of CHO FcεRI+ cells. After a 1 hour incubation at room temperature, 50 uL of ^125I-IgE (1.5 nM) was added to each well and incubated for an additional 45-60 minutes at 4° C. followed by 5 washes with 200 uL of assay buffer. Cells were solubilized with 200 uL of 1 N NaOH and transferred to a 96 microtiter tube for counting in a gamma counter to determine counts bound. The data were plotted using KaleidaGraph 3.0 and fitted using 4-parameter fits. IC50 values were determined for each peptide.
Six peptides based on selected clones from library #516 were synthesized and assayed for the ability to inhibit the binding of ^125I-IgE to a Chinese hamster ovary cell line expressing the alpha subunit of the IgE high affinity receptor, FcεRI. The peptides were synthesized as nine residue monomers and oxidized to allow the formation of a disulfide bridge resulting in a cyclic peptide. The size of each peptide was confirmed by mass spectrometry.

[3] = inhibition of labeled IgE-binding to CHO FcεRI+ cells, read-out: Mean IC50(uM) ± S.D.

Compound: CSCC[C@H](NC(=O)[C@@H]1CSSC[C@H](NC(=O)[C@H](CCCNC(=N)N)NC(=O)[C@@H]2CCCN2C(=O)[C@H](CC(C)C)NC(=O)[C@@H](N)CC(N)=O)C(=O)N[C@@H]([C@@H](C)O)C(=O)N[C@@H](CCC(=O)O)C(=O)NCC(=O)N2CCC[C@H]2C(=O)N[C@@H](C)C(=O)NCC(=O)N[C@@H](Cc2c[nH]c3ccccc23)C(=O)N[C@@H](C(C)C)C(=O)N1)C(=O)O [IGE072, NLPRCTEGPAGWVCM] (H-NLPRCTEGPAGWVCM-OH; disulfide 5-14; N-terminus and C-terminus assumed)
Struct. Score [1]: +++

Compound: CC[C@H](C)[C@H](N)C(=O)N[C@H](C(=O)N[C@H]1CSSC[C@@H](C(=O)N[C@@H](Cc2ccc(O)cc2)C(=O)N[C@H](C(N)=O)C(C)C)NC(=O)[C@H](C(C)C)NC(=O)[C@H](CC(=O)O)NC(=O)[C@@H]2CCCN2C(=O)[C@@H]2CSSC[C@H](NC(=O)[C@H](CC(C)C)NC(=O)[C@H](CCCNC(=N)N)NC(=O)[C@@H]3CCCN3C1=O)C(=O)N[C@@H](Cc1ccc(O)cc1)C(=O)N[C@@H](CCC(=O)O)C(=O)N[C@@H](CC(C)C)C(=O)N[C@@H](CC(=O)O)C(=O)N[C@@H](Cc1ccc(O)cc1)C(=O)N[C@@H](CCC(=O)O)C(=O)N[C@@H](CC(C)C)C(=O)N2)C(C)C [IGE141] (H-IVCPRLCYELDYELCPDVCYV-NH2; disulfide 3-19, 7-15)
fold difference in activity relative to comparator peptide [2]: 2 fold

Compound: CC(C)C[C@H](NC(=O)[C@H](C)N)C(=O)N[C@H]1CSSC[C@@H](C(=O)N[C@@H](Cc2ccc(O)cc2)C(=O)N[C@H](C(N)=O)C(C)C)NC(=O)[C@H](C(C)C)NC(=O)[C@H](CCC(=O)O)NC(=O)[C@@H]2CCCN2C1=O [IGE035, ALCPEVCYV-nh2] (H-ALCPEVCYV-NH2; disulfide 3-7)
inhibiting 125I-IgE binding to cell surface expressed FcεRI (in words) [2]: not active | IC50 ([2]; IgE-inhibition activity of synthetic peptides, read-out: Inhibition activity: C+hd 50 +l (uM) ± s.d.): > 500 µM

Compound: CC(C)C[C@@H]1NC(=O)[C@H](CCC(=O)O)NC(=O)[C@H](C)NC(=O)CNC(=O)CNC(=O)[C@H](Cc2ccccc2)NC(=O)[C@H](Cc2ccc(O)cc2)NC(=O)[C@@H]2CSSC[C@H](NC1=O)C(=O)N1CCC[C@H]1C(=O)N[C@@H](CC(=O)O)C(=O)N[C@@H](C(C)C)C(=O)N[C@H](C(=O)N[C@@H](Cc1ccc(O)cc1)C(=O)N[C@H](C(N)=O)C(C)C)CSSC[C@H](NC(=O)[C@H](CCC(N)=O)NC(=O)[C@@H](N)C(C)C)C(=O)N1CCCC[C@H]1C(=O)N[C@@H](Cc1c[nH]cn1)C(=O)N[C@@H](Cc1ccccc1)C(=O)N2 [IGE162-2, VQC(Pip)HFCYFGGAELCPDVCYV-nh2] (H-VQC[Pip]HFCYFGGAELCPDVCYV-NH2; disulfide 3-19, 7-15)
fold difference in activity relative to comparator peptide [2]: little change in activity

Compound: CSCC[C@H](NC(=O)[C@@H]1CSSC[C@H](NC(=O)[C@@H]2CCCN2C(=O)[C@H](CC(C)C)NC(=O)[C@H](CC(N)=O)NC(C)=O)C(=O)N[C@@H]([C@@H](C)O)C(=O)N[C@@H](C)C(=O)NCC(=O)N2CCC[C@H]2C(=O)N[C@@H](Cc2c[nH]c3ccccc23)C(=O)NCC(=O)N[C@@H](Cc2c[nH]c3ccccc23)C(=O)N[C@@H](C(C)C)C(=O)N1)C(=O)N[C@@H](C)C(=O)N[C@@H](C)C(=O)N[C@@H](CC(=O)O)C(N)=O [IGE060, Ac-NLPCTAGPWGWVCMAAD-nh2] (Ac-NLPCTAGPWGWVCMAAD-NH2; disulfide 4-13)
IC50 [2, 3]: > 500 µM

Compound: CC[C@H](C)[C@H](NC(=O)[C@@H]1CSSC[C@H](NC(C)=O)C(=O)N[C@@H]([C@@H](C)O)C(=O)N[C@@H](CCC(=O)O)C(=O)NCC(=O)N2CCC[C@H]2C(=O)N[C@@H](Cc2c[nH]c3ccccc23)C(=O)NCC(=O)N[C@@H](Cc2c[nH]c3ccccc23)C(=O)N[C@@H](C(C)C)C(=O)N1)C(N)=O [IGE056, Ac-CTEGPWGWVCI-nh2] (Ac-CTEGPWGWVCI-NH2; disulfide 1-10)
IC50 [2, 3]: > 500 µM

Compound: CC[C@H](C)[C@H](NC(=O)[C@@H]1CSSC[C@H](N)C(=O)N[C@@H](CC(C)C)C(=O)N[C@@H](CCC(=O)O)C(=O)NCC(=O)N2CCC[C@H]2C(=O)N[C@@H](Cc2c[nH]c3ccccc23)C(=O)NCC(=O)N[C@@H](Cc2c[nH]c3ccccc23)C(=O)N[C@@H](Cc2ccccc2)C(=O)N1)C(N)=O [IGE045, CLEGPWGWFCI-nh2] (H-CLEGPWGWFCI-NH2; disulfide 1-10; N-terminus assumed)
IC50 [2, 3]: 300 ± 269 µM

Compound: CC[C@H](C)[C@H](NC(=O)[C@@H]1CSSC[C@H](NC(=O)[C@H](CC(C)C)NC(=O)[C@@H](NC(=O)CNC(=O)[C@@H](N)CCSC)[C@@H](C)O)C(=O)N[C@@H](CC(C)C)C(=O)N[C@@H](CCC(=O)O)C(=O)NCC(=O)N2CCC[C@H]2C(=O)N[C@@H](CCC(=O)O)C(=O)NCC(=O)N[C@@H](Cc2c[nH]c3ccccc23)C(=O)N[C@@H](Cc2ccccc2)C(=O)N1)C(=O)N[C@@H](CCC(=O)O)C(=O)N[C@@H](CO)C(=O)N[C@@H](C)C(=O)O [MGTLCLEGPEGWFCIESA] (H-MGTLCLEGPEGWFCIESA-OH; disulfide 5-14)
IC50 ([2]; IGE037: initially, read-out: IC50): > 160 µM

Second part, the compound after the results:

Struct. Score [1]: −/+
Compound: CSCC[C@H](NC(=O)[C@@H]1CSSC[C@H](NC(=O)[C@H](CCCNC(=N)N)NC(=O)[C@@H]2CCCN2C(=O)[C@H](CC(C)C)NC(=O)[C@H](CC(N)=O)NC(C)=O)C(=O)N[C@@H]([C@@H](C)O)C(=O)N[C@@H](CCC(=O)O)C(=O)NCC(=O)N(C)CC(=O)N[C@@H](Cc2c[nH]c3ccccc23)C(=O)NCC(=O)N[C@@H](Cc2c[nH]c3ccccc23)C(=O)N[C@@H](C(C)C)C(=O)N1)C(=O)O [IGE097, Ac-NLPRCTEG(N-Me-G)WGWVCM] (Ac-NLPRCTEG[Sar]WGWVCM-OH; disulfide 5-14; C-terminus assumed)

Struct. Score [1]: −
Compound: CSCC[C@H](NC(=O)[C@H]1CSSC[C@H](NC(=O)[C@H](CCCNC(=N)N)NC(=O)[C@@H]2CCCN2C(=O)[C@H](CC(C)C)NC(=O)[C@H](CC(N)=O)NC(C)=O)C(=O)N[C@@H]([C@@H](C)O)C(=O)N[C@@H](CCC(=O)O)C(=O)NCC(=O)N2CCC[C@H]2C(=O)N[C@@H](Cc2c[nH]c3ccccc23)C(=O)NCC(=O)N[C@@H](Cc2c[nH]c3ccccc23)C(=O)N[C@@H](C(C)C)C(=O)N1)C(=O)O [IGE104, Ac-NLPRCTEGPWGWVcM] (Ac-NLPRCTEGPWGWV[dC]M-OH; disulfide 5-14; C-terminus assumed)

Struct. Score [1]: +++
Compound: CSCC[C@H](NC(=O)[C@@H]1CSSC[C@H](NC(=O)[C@H](CCCNC(=N)N)NC(=O)[C@@H]2CCCN2C(=O)[C@H](CC(C)C)NC(=O)[C@@H](N)CC(N)=O)C(=O)N[C@@H]([C@@H](C)O)C(=O)N[C@@H](CCC(=O)O)C(=O)NCC(=O)N2CCC[C@H]2C(=O)N[C@@H](Cc2c[nH]c3ccccc23)C(=O)NCC(=O)N[C@@H](Cc2c[nH]c3ccccc23)C(=O)N[C@@H](Cc2ccc(O)cc2)C(=O)N1)C(=O)O [IGE077, NLPRCTEGPWGWYCM] (H-NLPRCTEGPWGWYCM-OH; disulfide 5-14; N-terminus and C-terminus assumed)

fold reduction in inhibition/binding ([2]; truncations and alanine substitutions of IGE063): 6 fold
Compound: CSCC[C@H](NC(=O)[C@@H]1CSSC[C@H](NC(=O)[C@H](CCCNC(=N)N)NC(=O)[C@@H]2CCCN2C(=O)[C@H](CC(C)C)NC(=O)[C@H](CC(N)=O)NC(C)=O)C(=O)N[C@@H]([C@@H](C)O)C(=O)N[C@@H](C)C(=O)NCC(=O)N2CCC[C@H]2C(=O)N[C@@H](Cc2c[nH]c3ccccc23)C(=O)NCC(=O)N[C@@H](Cc2c[nH]c3ccccc23)C(=O)N[C@@H](C(C)C)C(=O)N1)C(=O)N[C@@H](C)C(=O)N[C@@H](C)C(=O)N[C@@H](CC(=O)O)C(N)=O [IGE059, AC-NLPRCTAGPWGWVCMAAD-nh2] (Ac-NLPRCTAGPWGWVCMAAD-NH2; disulfide 5-14)
